Where [1] appears, read: Streptococcus sanguis, MH medium, 96 hours anaerobic cultivation at 37° C., less than 10 colonies on LRBB agar.
Where [2] appears, read: Streptococcuis mutans, MH medium, 96 hours anaerobic cultivation at 37° C., less than 10 colonies on LRBB agar.
[3] abbreviates: Lactobacillus casei, MH medium, 96 hours anaerobic cultivation at 37° C., less than 10 colonies on LRBB agar.
Where [4] appears, read: Acetinobacillus, MH medium, 96 hours anaerobic cultivation at 37° C., less than 10 colonies on LRBB agar.
The mark [5] stands for this setting: Bacterioides gingivalis, MH medium, 96 hours anaerobic cultivation at 37° C., less than 10 colonies on LRBB agar.
Where [6] appears, read: Capnocytophaga ochraceus, MH medium, 96 hours anaerobic cultivation at 37° C., less than 10 colonies on LRBB agar.
[7] abbreviates: Fusobacterium nucleanum, MH medium, 96 hours anaerobic cultivation at 37° C., less than 10 colonies on LRBB agar.

Like-named read-outs stand apart in the source and are kept apart here.

As for `O=C([O-])O.[K+]` [KHCO3, potassium bicarbonate], the disinfection concentration is 300 in the assay on Streptococcus sanguis; 600 in the assay with Streptococcuis mutans; 600 in the assay on Lactobacillus casei; 300 with Acetinobacillus; 100 in the assay on Bacterioides gingivalis; 150 in the assay on Capnocytophaga ochraceus. Besides, in the assay with Eikenella corrdens, the disinfection concentration is on record as 300.
On to `O=S(=O)([O-])[O-].[Mg+2]` [MgSO4, magnesium sulfate], for which the disinfection concentration in the assay on Streptococcus sanguis (setting [1]) is 1,600; in the assay on Streptococcuis mutans (setting [2]), 1,700; with Lactobacillus casei (setting [3]) it was 1,500; in the assay with Acetinobacillus (setting [4]), 300; in the assay with Bacterioides gingivalis (setting [5]), 600; in the assay with Capnocytophaga ochraceus (setting [6]) it was 400. In the assay on Fusobacterium nucleanum (setting [7]), this compound registered a disinfection concentration of 300.
On to `[Cl-].[Na+]` [NaCl, sodium chloride], for which the disinfection concentration was 2,200 in the assay with Streptococcus sanguis (setting [1]); 1,300 in the assay on Streptococcuis mutans (setting [2]); 1,200 in the assay with Lactobacillus casei (setting [3]); 250 in the assay on Acetinobacillus (setting [4]); 650 in the assay on Bacterioides gingivalis (setting [5]); 350 in the assay on Capnocytophaga ochraceus (setting [6]). In addition, the disinfection concentration in the assay on Eikenella corrdens (Eikenella corrdens, MH medium, 96 hours anaerobic cultivation at 37° C., less than 10 colonies on LRBB agar) is 400; in the assay with Fusobacterium nucleanum (setting [7]), 400.
With `O=C([O-])O.[Na+]` [NaHCO3, sodium bicarbonate], the disinfection concentration is on record as 500 with Streptococcus sanguis; 450 in the assay on Streptococcuis mutans; 500 in the assay with Lactobacillus casei; 250 with Acetinobacillus; 500 in the assay on Bacterioides gingivalis; 200 in the assay with Capnocytophaga ochraceus. The disinfection concentration with Fusobacterium nucleanum stood at 450.

The record behind these values is patent US20020068038A1, “Foaming tablet for cleaning the oral cavity and preparation method thereof” (priority 1998, published 2002).
